Test results reported in patent US12053529B2, “Amino-reactive positively charged ATRP initiators that maintain their positive charge during synthesis of biomacro-initiators” (Carnegie Mellon University, priority 2018, dated 2024).

Experiments:
[1] = tested on: avidin, native; test: biotin binding rate, native avidin
Description: (§1) Avidin: Avidin (Avi) is a tetrameric protein (homo-4-mer) that is approximately 66 kDa in its tetrameric form and is found in the egg whites of birds, reptiles, and amphibians. Its highly specific activity arises from binding strongly to biotin and this binding event is one of the strongest noncovalent interactions known, making avidin extremely useful for biochemical assays/probes and protein purification chemistries. Each sub-unit of avidin can bind to one biotin molecule. In agreement with CT and Lyz, the number of initiator modifications when using the positive initiator was less than that achieved with neutral initiator (4.3 versus 7.9). The activities of avidin samples were measured next using two different techniques (TABLE 6). Biotin binding rates were determined kinetically and total equilibrium biotin binding were determined spectophotometrically using 4′-hydroxyazobenzene-2-carboxylic acid (HABA) dye. Since the avidin-biotin binding is so strong, the displacement of HABA by biotin in the active site can be measured and the amount of bound biotin can be determined by the decrease in absorbance at 500 nm. The biotin binding rate of Avi-neutral initiator was decreased to 0.48 s^−1 from 105.2 s^−1 for native avidin.

[2] = tested on: avidin, neutral initiator (N)-pCBMA; test: biotin binding rate, avidin (N)-pCBMA
Description: as §1

[3] = tested on: avidin, positive initiator (+); test: biotin binding rate, avidin-positive initiator
Description: as §1

[4] = tested on: avidin, positive initiator (+)-pCBMA; test: biotin binding rate, avidin (+)-pCBMA
Description: as §1

[5] = biological target: acetylcholinesterase (AChE) from Electrophorus electricus, neutral initiator (N)-pSMA (Electrophorus electricus, UniProt O42275); test: Michaelis-Menten kinetics, acetylthiocholine iodide hydrolysis, AChE (N)-pSMA; format: biochemical, Electrophorus electricus (electric eel); settings: pH 7.4, 37° C., DTNB
Experimental: (§2) CT and Lysozyme were used as received. AChE and Uricase were dialyzed in 25 mM sodium phosphate (pH 7.0) using a 25 kDa molecular weight cutoff dialysis tube in a refrigerator for 24 hours and then lyophilized. Copper (II) chloride, sodium ascorbate, 1,1,4,7,10,10-hexamethyltriethylenetetramine (HMTETA), 2-bromo-2-methylpropionyl bromide, 3-(dimethylamino)-1-propylamine, N,N′-diisopropylcarbodimine, fluorescamine, acetylthiocholine iodide, 5,5′-dithiobis(2-nitrobenzoic acid) (DTNB) were purchased from Sigma Aldrich. 4-bromobutyric acid and N-hydroxysuccinimide were purchased from TCI USA (Portland, OR). Micro BCA assay kit was purchased from Thermo Fisher Scientific.
(§3) AChE: 100 μL of NHS-functionalized ATRP initiator solution in DMSO (12.7 μmol, 4.3 mg for neutral and 5.5 mg for positive initiator, respectively) was added to AChE solution (7 mg of AChE in 10 mL of 100 mM phosphate (pH 8.0)) and stirred at room temperature for 2 hours. […] The concentration of AChE initiator conjugates was determined using a Micro BCA Assay Kit.
(§4) CT-pCBMA and pSMA conjugate synthesis: A solution of monomer (230 mg for CBMA and 246 mg for SMA, 1.0 mmol respectively) and CT-initiator (23 mg for neutral and 25 mg for positive initiator, 10 μmol of initiator) in 100 mM sodium phosphate (20 mL, pH 7) was sealed and bubbled with nitrogen gas in an ice bath for 30 minutes. […] Conjugate CT content was determined by BCA assay as described elsewhere (Lee et al. 2005, supra). […]
AChE: Acetylthiocholine iodide (0-100 μL of 10 mM in 100 mM sodium phosphate buffer (pH 7.4)) and 10 μL of DTNB solution (50 mM in DMSO) was mixed with 100 mM sodium phosphate (980-880 μL, pH 7.4). […] The initial rate was monitored by recording the increasing in absorbance as 412 nm using an UV-VIS absorbance spectrometer with a temperature controlled cell folder at 37° C. Michaelis-Menten parameters were determined by nonlinear curve fitting of initial rate versus substrate concentration plots using Prism 7 software (GraphPad).

[6] = biological target: acetylcholinesterase (AChE) from Electrophorus electricus, positive initiator (+) (Electrophorus electricus, UniProt O42275); test: Michaelis-Menten kinetics, acetylthiocholine iodide hydrolysis, AChE-positive initiator; format: biochemical, Electrophorus electricus (electric eel); settings: AChE-positive initiator vs AChE-neutral initiator
Experimental: as §2, §3
AChE: Acetylthiocholine iodide (0-100 μL of 10 mM in 100 mM sodium phosphate buffer (pH 7.4)) and 10 μL of DTNB solution (50 mM in DMSO) was mixed with 100 mM sodium phosphate (980-880 μL, pH 7.4). […] Michaelis-Menten parameters were determined by nonlinear curve fitting of initial rate versus substrate concentration plots using Prism 7 software (GraphPad).

[7] = tested on: Uricase from Candida sp., neutral initiator (N); test: Michaelis-Menten kinetics, uric acid oxidation, uricase-neutral initiator; format: biochemical; settings: pH 8.5, 37° C.
Experimental: as §2
(§5) Uricase: 200 μL of NHS-functionalized ATRP initiator solution in DMSO (100 μmol, 34 mg for neutral and 52 mg for positive initiator, respectively) was added to Uricase solution (20 mg of […] Uricase in 20 mL of 100 mM phosphate (pH 7.0)) and stirred at room temperature for 2 hours. Uricase-initiator conjugates were dialyzed in 25 mM sodium phosphate (pH 7.0) using a 25 kDa molecular cutoff dialysis tube in a refrigerator for 24 hours and then lyophilized. The concentration of Uricase initiator conjugates was determined using a Micro BCA Assay Kit (ThermoFisher Scientific).
(§6) Uricase: Uric acid (0-400 μL of 300 μM in 50 mM sodium tetraborate (pH 8.5)) was mixed with 50 mM sodium phosphate ([…], pH 8.5). Native, initiator and polymer conjugate solution (10 μL, 20 μM of Uricase) was added to the substrate solution. The initial rate was monitored by recording the decreasing in absorbance as 290 nm using an UV-VIS absorbance spectrometer with a temperature controlled cell folder at 37° C. Michaelis-Menten parameters were determined by nonlinear curve fitting of initial rate versus substrate concentration plots using Prism 7 software (GraphPad).

[8] = tested on: Uricase from Candida sp., positive initiator (+)-pSMA; test: Michaelis-Menten kinetics, uric acid oxidation, uricase (+)-pSMA; format: biochemical; settings: pH 8.5, 37° C.
Experimental: as §2
as §5, with “Uricase-initiator conjugates were dialyzed in 25 mM sodium phosphate (pH 7.0) using a 25 kDa molecular cutoff dialysis tube in a refrigerator for 24 hours and then lyophilized.” left out
as §4
as §6, with “Native, initiator and polymer conjugate solution (10 μL, 20 μM of Uricase) was added to the substrate solution.” left out

[9] = tested on: Uricase from Candida sp., positive initiator (+)-pCBMA; test: Michaelis-Menten kinetics, uric acid oxidation, uricase (+)-pCBMA; format: biochemical; settings: pH 8.5, 37° C.
Experimental: as §2
as §5, with “Uricase-initiator conjugates were dialyzed in 25 mM sodium phosphate (pH 7.0) using a 25 kDa molecular cutoff dialysis tube in a refrigerator for 24 hours and then lyophilized.” left out
as §4
as §6, with “Native, initiator and polymer conjugate solution (10 μL, 20 μM of Uricase) was added to the substrate solution.” left out

[10] = tested on: Uricase from Candida sp., neutral initiator (N)-pSMA; test: Michaelis-Menten kinetics, uric acid oxidation, uricase (N)-pSMA; format: biochemical; settings: pH 8.5, 37° C.
Experimental: as §2
as §5, with “Uricase-initiator conjugates were dialyzed in 25 mM sodium phosphate (pH 7.0) using a 25 kDa molecular cutoff dialysis tube in a refrigerator for 24 hours and then lyophilized.” left out
as §4
as §6, with “Native, initiator and polymer conjugate solution (10 μL, 20 μM of Uricase) was added to the substrate solution.” left out

[11] = tested on: Uricase from Candida sp., neutral initiator (N)-pCBMA; test: Michaelis-Menten kinetics, uric acid oxidation, uricase (N)-pCBMA; format: biochemical; settings: pH 8.5, 37° C.
Experimental: as §2
as §5, with “Uricase-initiator conjugates were dialyzed in 25 mM sodium phosphate (pH 7.0) using a 25 kDa molecular cutoff dialysis tube in a refrigerator for 24 hours and then lyophilized.” left out
as §4
as §6, with “Native, initiator and polymer conjugate solution (10 μL, 20 μM of Uricase) was added to the substrate solution.” left out

[12] = tested on: Uricase from Candida sp., positive initiator (+); test: Michaelis-Menten kinetics, uric acid oxidation, uricase-positive initiator; format: biochemical; settings: pH 8.5, 37° C.
Experimental: as §2, §5, §6

[13] = tested on: Uricase from Candida sp., native; test: Michaelis-Menten kinetics, uric acid oxidation, native uricase; format: biochemical; settings: pH 8.5, 37° C.
Experimental: as §2, §6

acetylcholinesterase (AChE) from Electrophorus electricus, neutral initiator (N)-pSMA, sequence (O42275 24-633): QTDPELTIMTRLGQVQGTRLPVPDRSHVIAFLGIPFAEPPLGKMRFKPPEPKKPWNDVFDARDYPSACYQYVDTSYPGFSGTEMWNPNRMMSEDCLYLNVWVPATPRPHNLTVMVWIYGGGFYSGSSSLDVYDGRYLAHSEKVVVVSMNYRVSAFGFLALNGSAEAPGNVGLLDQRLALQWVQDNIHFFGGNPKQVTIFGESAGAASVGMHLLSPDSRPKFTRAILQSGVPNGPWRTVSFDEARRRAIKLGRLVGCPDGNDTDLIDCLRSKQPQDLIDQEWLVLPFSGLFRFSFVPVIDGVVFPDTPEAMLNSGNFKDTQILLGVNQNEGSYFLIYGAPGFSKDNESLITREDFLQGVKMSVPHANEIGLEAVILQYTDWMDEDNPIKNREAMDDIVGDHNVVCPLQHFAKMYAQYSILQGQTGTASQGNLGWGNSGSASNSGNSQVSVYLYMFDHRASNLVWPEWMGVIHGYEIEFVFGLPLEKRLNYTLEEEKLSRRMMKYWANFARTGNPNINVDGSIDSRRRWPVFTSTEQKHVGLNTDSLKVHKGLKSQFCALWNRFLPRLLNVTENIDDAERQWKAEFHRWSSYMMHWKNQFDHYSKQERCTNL
acetylcholinesterase (AChE) from Electrophorus electricus, positive initiator (+), sequence (O42275 24-633): as above

SMILES: O=C(O)CCCC[C@@H]1SC[C@@H]2NC(=O)N[C@@H]21 [biotin]
- biotin binding rate [1]: 92.5 ± 14.1 s⁻¹
- biotin binding rate [2]: 0.23 ± 0.07 s⁻¹
- increase in biotin binding rate compared to Avi-neutral initiator ([3]; Avi-positive initiator vs Avi-neutral initiator): 1.7 fold
- biotin binding rate ([3]; avidin (+)): 1.69 ± 0.04 s⁻¹
- biotin binding rate [4]: 1.64 ± 0.08 s⁻¹

SMILES: CC(=O)SCC[N+](C)(C)C.[I-] [acetylthiocholine iodide]
- KM [5]: undetectable
- kcat [5]: undetectable
- kcat/KM [5]: undetectable
- KM increase versus AChE-neutral initiator [6]: about 2.4 ×

SMILES: O=c1[nH]c(=O)c2[nH]c(=O)[nH]c2[nH]1 [uric acid]
- Km [7]: 119 ± 9.7 µM
- kcat [7]: 0.18 ± 0.01 s⁻¹
- kcat/KM [7]: 2000 ± 600 M⁻¹ s⁻¹
- KM [8]: undetectable
- kcat [8]: undetectable
- kcat/KM [8]: undetectable
- Km [9]: 22 ± 7.6 µM
- kcat [9]: 0.03 ± 0.003 s⁻¹
- kcat/KM [9]: 1000 ± 500 M⁻¹ s⁻¹
- KM [10]: undetectable
- kcat [10]: undetectable
- kcat/KM [10]: undetectable
- KM [11]: undetectable
- kcat [11]: undetectable
- kcat/KM [11]: undetectable
- Km [12]: 25.4 ± 1.4 µM
- kcat [12]: 2.14 ± 0.04 s⁻¹
- kcat/KM [12]: 84000 ± 5000 M⁻¹ s⁻¹
- Km [13]: 12.9 ± 0.6 µM
- kcat [13]: 3.42 ± 0.05 s⁻¹
- kcat/KM [13]: 266000 ± 13000 M⁻¹ s⁻¹
